Consider one compound from ChEMBL document CHEMBL4219083, “Reduction of Circulating Cancer Cells and Metastases in Breast-Cancer Models by a Potent EphA2-Agonistic Peptide-Drug Conjugate” (J Med Chem, 2018).

Activity calls are given as the source filed them. The calls are words filed in the database; no cut-off is given here.

The subject of data set [1] is MDA-MB-231. The experiment in a line: Antimetastatic activity against human MDA-MB-231 cells xenografted in NOD-scid mouse assessed as reduction in circulating tumor cells at 24.5 mg/kg, iv administered thrice per week for 2 weeks immunofluorescent staining-based assay. The data set is classed as functional, organism-based. A general note: A xenograft is tissue or cells of one species grown in another, often human tumour cells in immunodeficient mice.

Data set [2] concerns 4T1. Nature of the data set: Antimetastatic activity against mouse 4T1 cells implanted in BALB/c mouse assessed as reduction in CD31-expressing vasculature at 24.5 mg/kg administered thrice per week for 2 weeks after 15 days post implantation by immunostaining-based assay. The data set is classed as functional, organism-based.
Data set [3] concerns MDA-MB-231. The experiment in a line: Antimetastatic activity against human MDA-MB-231 cells xenografted in NOD-scid mouse assessed as reduction in tumor burden at 24.5 mg/kg, iv administered thrice per week for 2 weeks. The data set is classed as functional, organism-based.
The subject of a further data set is Mus musculus. The experiment in a line: Toxicity in BALB/c mouse implanted with mouse 4T1 cells assessed as reduction in body weight at 24.5 mg/kg administered thrice per week for 2 weeks after 15 days post implantation. As to conditions: in vivo. The data set is classed as organism-based.
For data set [4], the system named is 4T1. The experiment in a line: Antimetastatic activity against mouse 4T1 cells implanted in BALB/c mouse assessed as reduction in gross lung-metastasis count at 24.5 mg/kg administered thrice per week for 2 weeks after 15 days post implantation relative to control. The data set is classed as functional. The arrangement: scale not given: the % may be the effect or the level left.

The subject of data set [5] is 4T1. Nature of the data set: Antimetastatic activity against mouse 4T1 cells implanted in BALB/c mouse assessed as reduction in microscopic lung nodules at 24.5 mg/kg administered thrice per week for 2 weeks after 15 days post implantation by H and E staining-based assay. The data set is classed as functional, organism-based.

For the compound `CCCC[C@H](NC(=O)[C@@H]1CCCN1C(=O)[C@@H](NC(=O)[C@H](CO)NC(=O)[C@H](CC(=O)O)NC(=O)[C@@H]1CCCN1C(=O)[C@H](Cc1ccc(O)cc1)NC(=O)[C@H](C)NC(=O)[C@H](CO)NC(=O)COc1ccc(F)c(Cl)c1)C(C)C)C(=O)N[C@@H](CCO)C(=O)N[C@@H](CO)C(=O)NCC(=O)NCCCC[C@H](NC(=O)CNC(=O)[C@H](CO)NC(=O)[C@H](CCO)NC(=O)[C@H](CCCC)NC(=O)[C@@H]1CCCN1C(=O)[C@@H](NC(=O)[C@H](CO)NC(=O)[C@H](CC(=O)O)NC(=O)[C@@H]1CCCN1C(=O)[C@H](Cc1ccc(O)cc1)NC(=O)[C@H](C)NC(=O)[C@H](CO)NC(=O)COc1ccc(F)c(Cl)c1)C(C)C)C(=O)NCC(=O)N[C@H](CCCCNC(=O)CCCc1cn(CCCCCC(=O)O[C@@H](C(=O)O[C@H]2C[C@@]3(O)[C@@H](OC(=O)c4ccccc4)[C@@H]4[C@]5(OC(C)=O)CO[C@@H]5C[C@H](O)[C@@]4(C)C(=O)[C@H](OC(C)=O)C(=C2C)C3(C)C)[C@@H](NC(=O)c2ccccc2)c2ccccc2)nn1)C(=O)NCC(=O)O`, the result in the data set on MDA-MB-231 [1], with 4T1 [2], in the data set with MDA-MB-231 [3] and in the data set on 4T1 [5] was Active. For the same compound, the Activity entry is “Non-Toxic” in the data set on Mus musculus and greater than 75% in the data set with 4T1 [4].
